# Results from PMC9667932, “Isobactins: O-acyl isopeptide prodrugs of teixobactin and teixobactin derivatives” (Chemical Science, 2022).
# Like-named read-outs stand apart in the source and are kept apart here. Marks after values point to notes of the source that are not given here.
# What was measured:
# human red blood cells = test: Hemolytic assay; assay type: cell-based
# Excerpt: We evaluated the hemolytic activity of the O-acyl isopeptide prodrugs and the corresponding teixobactin analogues with human red blood cells (Fig. S14–S21 ^†). We used Triton X-100 and melittin as positive controls and vancomycin and water (vehicle) as negative controls in the hemolysis assays.[9,25,26] […] In contrast, 0.002% polysorbate 80 had no effect on the hemolytic activity of Lys10–teixobactin and Leu10–teixobactin and little effect on the corresponding O-acyl isopeptide prodrug analogues. When we performed hemolysis assays with teixobactin, we observed no hemolysis up to 100 μg mL^−1 without polysorbate 80 and modest hemolysis (4%) at 100 μg mL^−1 with 0.002% polysorbate 80. We observed no hemolysis with vancomycin at concentrations up to 100 μg mL^−1, and we observed 26–30% hemolysis with 1.25 μg mL^−1 melittin with and without 0.002% polysorbate 80.
# [1] = tested on: four Gram-positive bacteria; settings: Table 2
# Excerpt: (§1) We used methicillin-susceptible and methicillin-resistant S. aureus as representative pathogens and B. subtilis and S. epidermidis as additional Gram-positive bacteria, and we used E. coli as a Gram-negative control.
# [2] = tested on: Staphylococcus epidermidis ATCC 14990; test: microbe, parasite or virus in culture
# Excerpt: as §1
# [3] = tested on: Staphylococcus aureus (MSSA) ATCC 29213; test: microbe, parasite or virus in culture; settings: ATCC29213|MSSA
# Excerpt: as §1
# [4] = tested on: Staphylococcus aureus (MRSA) ATCC 700698; test: microbe, parasite or virus in culture
# Excerpt: as §1
# [5] = tested on: Escherichia coli ATCC 10798; test: microbe, parasite or virus in culture
# Excerpt: as §1
# [6] = tested on: Bacillus subtilis ATCC 6051; test: microbe, parasite or virus in culture
# Excerpt: as §1
# [7] = in the presence of 0.002% polysorbate 80
compound,measurement,setting,value
melittin [reference compound],Hemolysis at 1.25 μg mL^−1,"human red blood cells; with and without 0.002% polysorbate 80, positive control",26–30%
CC[C@H](C)[C@H](NC(=O)[C@@H](Cc1ccccc1)NC)C(=O)N[C@@H](CO)C(=O)N[C@H](CCC(N)=O)C(=O)N[C@@H](C(=O)N[C@H](C(=O)N[C@@H](CO)C(=O)N[C@H]1C(=O)N[C@@H](C)C(=O)N[C@@H](CCCCN)C(=O)N[C@@H]([C@@H](C)CC)C(=O)O[C@H]1C)[C@@H](C)CC)[C@@H](C)CC [Lys10–teixobactin],Effect of 0.002% polysorbate 80 on the hemolytic activity,human red blood cells,no effect
same,MICs (range over the Gram-positive bacteria),[1]; [7],0.25 to 2 µg/mL
same,MICs (range over the Gram-positive bacteria),[1]; without polysorbate 80,2 to 4 µg/mL
"CN[C@H](CC(C)C)C(=O)N[C@H]1C(=O)N[C@@H](CC(N)=O)C(=O)N[C@H]2C(=O)N[C@H]3C(=O)N[C@H](C(=O)N[C@H](C(=O)O)c4cc(O)cc(O)c4-c4cc3ccc4O)[C@H](O)c3ccc(c(Cl)c3)Oc3cc2cc(c3O[C@@H]2O[C@H](CO)[C@@H](O)[C@H](O)[C@H]2O[C@H]2C[C@](C)(N)[C@H](O)[C@H](C)O2)Oc2ccc(cc2Cl)[C@H]1O [Vancomycin, vancomycin, reference compound]",Hemolysis at concentrations up to 100 μg mL^−1,human red blood cells; negative control,no hemolysis
same,MICs (range over the Gram-positive bacteria),[1]; [7],0.125 to 2 µg/mL
same,MIC,"[2]; ATCC14990, read-out: MIC Staphylococcus epidermidis ATCC 14990, culture media containing 0% polysorbate 80",1 µg/mL
same,MIC,"[2]; ATCC14990, read-out: MIC Staphylococcus epidermidis ATCC 14990, culture media containing 0.002% polysorbate 80",2 µg/mL
same,MIC,"[3]; read-out: MIC Staphylococcus aureus (MSSA) ATCC 29213, culture media containing 0% polysorbate 80",0.5 µg/mL
same,MIC,"[3]; read-out: MIC Staphylococcus aureus (MSSA) ATCC 29213, culture media containing 0.002% polysorbate 80",1 µg/mL
same,MIC,"[4]; Staphylococcus aureus, ATCC700698|MRSA, read-out: MIC Staphylococcus aureus (MRSA) ATCC 700698",2 µg/mL
same,MIC Staphylococcus aureus (MRSA) ATCC 700698,[4]; culture media containing 0.002% polysorbate 80,2 ^b μg mL^−1
same,MIC,"[5]; ATCC10798, read-out: MIC Escherichia coli ATCC 10798, culture media containing 0% polysorbate 80",> 32 µg/mL
same,MIC,"[5]; ATCC10798, read-out: MIC Escherichia coli ATCC 10798, culture media containing 0.002% polysorbate 80",> 8 µg/mL
same,MIC,"[6]; ATCC6051, read-out: MIC Bacillus subtilis ATCC 6051, culture media containing 0% polysorbate 80",0.125 to 0.25 µg/mL
same,MIC,"[6]; ATCC6051, read-out: MIC Bacillus subtilis ATCC 6051, culture media containing 0.002% polysorbate 80",0.5 µg/mL
CC[C@H](C)[C@H](NC(=O)[C@@H](Cc1ccccc1)NC)C(=O)N[C@@H](CO)C(=O)N[C@H](CCC(N)=O)C(=O)N[C@@H](C(=O)N[C@H](C(=O)N[C@@H](CO)C(=O)N[C@H]1C(=O)N[C@@H](C)C(=O)N[C@@H](CC(C)C)C(=O)N[C@@H]([C@@H](C)CC)C(=O)O[C@H]1C)[C@@H](C)CC)[C@@H](C)CC [Leu10–teixobactin],Effect of 0.002% polysorbate 80 on the hemolytic activity,human red blood cells,no effect
same,MIC Staphylococcus aureus (MRSA) ATCC 700698,[4]; ATCC 700698,2 ^a μg mL^−1
